Test results: patent US20020111274A1, “1-alkyl-3-[1-(substituted phenyl) benzotriazol-6-yl] uracils” (BASF Aktiengesellschaft, priority 2000, published 2002)

How the values were obtained:
Set-up in all cases: scale not given here
ECHOG Barnyardgrass [1] = test: Preemergence herbicidal evaluation, ECHOG; assay type: in vivo, Echinochloa crus-galli, (L.) Beau; conditions: preemergence
In short: (§1)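 Preemergence soil spray: aqueous acetone, ~0.013–0.800 kg/ha, applied right after sowing (seed/potting-soil mix over ~1 in soil). Greenhouse, routine watering. Scored 4–5 wk post-treatment on a rating scale.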

GALAP Galium [2] = test: Preemergence herbicidal evaluation, GALAP; assay type: in vivo, Galium aparine; conditions: preemergence
In short: as §1

[3] = system: IPOHE Morningglory, Ivyleaf; test: Postemergence herbicidal evaluation, IPOHE; assay type: in vivo, Ipomoea hederacea, (L.) Jacq.; conditions: postemergence spray, rated about two-three weeks after treatment
In short: (§2)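 Visual injury rating ~2–3 wk post-spray; replicate tests averaged. Two-week-old seedlings; foliar spray at 40 psi; 0.006–0.400 kg ai/ha in 80/20 acetone/water + 1.0% methylated seed oil.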

ECHOG Barnyardgrass [4] = test: Postemergence herbicidal evaluation, ECHOG; assay type: in vivo, Echinochloa crus-galli, (L.) Beau; conditions: postemergence spray, rated about two-three weeks after treatment
In short: as §2

ZEAMX Corn, Field [5] = test: Preemergence herbicidal evaluation, ZEAMX; assay type: in vivo, Zea mays, L. (Sammel-Bezeichnung); conditions: preemergence
In short: as §1

ORYSAT Rice, Tebonnet [6] = test: Preemergence herbicidal evaluation, ORYSAT; assay type: in vivo, Oryza sativa, (L.); conditions: preemergence
In short: as §1

ABUTH Velvetleaf [7] = test: Preemergence herbicidal evaluation, ABUTH; assay type: in vivo, Abutilon theophrasti, Medic.; conditions: preemergence
In short: as §1

[8] = system: IPOHE Morningglory, Ivyleaf; test: Preemergence herbicidal evaluation, IPOHE; assay type: in vivo, Ipomoea hederacea, (L.) Jacq.; conditions: preemergence
In short: as §1

AMBEL Ragweed, Common [9] = test: Postemergence herbicidal evaluation, AMBEL; assay type: in vivo, Ambrosia artemisifolia, L.; conditions: postemergence spray, rated about two-three weeks after treatment
In short: as §2

[10] = system: TRZAWR Wheat, Winter, cv Riband; test: Postemergence herbicidal evaluation, TRZAWR; assay type: in vivo, Triticum aestivum; conditions: postemergence spray, rated about two-three weeks after treatment
In short: as §2

CASOB Sicklepod [11] = test: Postemergence herbicidal evaluation, CASOB; assay type: in vivo, Cassia obtusifolia, L.; conditions: postemergence spray, rated about two-three weeks after treatment
In short: as §2

ZEAMX Corn, Field [12] = test: Postemergence herbicidal evaluation, ZEAMX; assay type: in vivo, Zea mays, L. (Sammel-Bezeichnung); conditions: postemergence spray, rated about two-three weeks after treatment
In short: as §2

AMBEL Ragweed, Common [13] = test: Preemergence herbicidal evaluation, AMBEL; assay type: in vivo, Ambrosia artemisifolia, L.; conditions: preemergence
In short: as §1

ORYSAT Rice, Tebonnet [14] = test: Postemergence herbicidal evaluation, ORYSAT; assay type: in vivo, Oryza sativa, (L.); conditions: postemergence spray, rated about two-three weeks after treatment
In short: as §2

SETVI Foxtail, Green [15] = test: Preemergence herbicidal evaluation, SETVI; assay type: in vivo, Setaria viridis, (L.) Beau; conditions: preemergence
In short: as §1

[16] = system: CHEAL Lambsquarters, Common; test: Postemergence herbicidal evaluation, CHEAL; assay type: in vivo, Chenopodium album, L.; conditions: postemergence spray, rated about two-three weeks after treatment
In short: as §2

[17] = system: TRZAWR Wheat, Winter, cv Riband; test: Preemergence herbicidal evaluation, TRZAWR; assay type: in vivo, Triticum aestivum; conditions: preemergence
In short: as §1

SETVI Foxtail, Green [18] = test: Postemergence herbicidal evaluation, SETVI; assay type: in vivo, Setaria viridis, (L.) Beau; conditions: postemergence spray, rated about two-three weeks after treatment
In short: as §2

CASOB Sicklepod [19] = test: Preemergence herbicidal evaluation, CASOB; assay type: in vivo, Cassia obtusifolia, L.; conditions: preemergence
In short: as §1

GALAP Galium [20] = test: Postemergence herbicidal evaluation, GALAP; assay type: in vivo, Galium aparine; conditions: postemergence spray, rated about two-three weeks after treatment
In short: as §2

ABUTH Velvetleaf [21] = test: Postemergence herbicidal evaluation, ABUTH; assay type: in vivo, Abutilon theophrasti, Medic.; conditions: postemergence spray, rated about two-three weeks after treatment
In short: as §2

GLXMAW Soybean, Williams [22] = test: Preemergence herbicidal evaluation, GLXMAW; assay type: in vivo, Glycine max, (L.) Merr. cv Williams; conditions: preemergence
In short: as §1

GLXMAW Soybean, Williams [23] = test: Postemergence herbicidal evaluation, GLXMAW; assay type: in vivo, Glycine max, (L.) Merr. cv Williams; conditions: postemergence spray, rated about two-three weeks after treatment
In short: as §2

[24] = system: CHEAL Lambsquarters, Common; test: Preemergence herbicidal evaluation, CHEAL; assay type: in vivo, Chenopodium album, L.; conditions: preemergence
In short: as §1

SMILES: Cc1cc(O)ccc1-n1nnc2cc(F)c(-n3c(=O)cc(C(F)(F)F)n(C)c3=O)cc21 [Example 33]
- ECHCG herbicidal rating (ECHOG Barnyardgrass [1]; rate 0.016 kg/ha): 0.0
- ECHCG herbicidal rating (ECHOG Barnyardgrass [1]; rate 0.032 kg/ha): 0.0
- ECHCG herbicidal rating (ECHOG Barnyardgrass [1]; rate 0.062 kg/ha): 0.0
- ECHCG herbicidal rating (ECHOG Barnyardgrass [1]; rate 0.125 kg/ha): 0.0
- GALAP herbicidal rating (GALAP Galium [2]; rate 0.016 kg/ha): 0.0
- GALAP herbicidal rating (GALAP Galium [2]; rate 0.032 kg/ha): 0.0
- GALAP herbicidal rating (GALAP Galium [2]; rate 0.062 kg/ha): 0.0
- GALAP herbicidal rating (GALAP Galium [2]; rate 0.125 kg/ha): 0.0
- Postemergence herbicidal rating IPOHE ([3]; 0.008 kg/ha): 0.0
- Postemergence herbicidal rating IPOHE ([3]; 0.016 kg/ha): 2.0
- Postemergence herbicidal rating IPOHE ([3]; 0.032 kg/ha): 3.0
- Postemergence herbicidal rating IPOHE ([3]; 0.062 kg/ha): 9.0
- Postemergence herbicidal rating ECHCG (ECHOG Barnyardgrass [4]; 0.008 kg/ha): 0.0
- Postemergence herbicidal rating ECHCG (ECHOG Barnyardgrass [4]; 0.016 kg/ha): 0.0
- Postemergence herbicidal rating ECHCG (ECHOG Barnyardgrass [4]; 0.032 kg/ha): 0.0
- Postemergence herbicidal rating ECHCG (ECHOG Barnyardgrass [4]; 0.062 kg/ha): 0.0
- ZEAMX herbicidal rating (ZEAMX Corn, Field [5]; rate 0.016 kg/ha): 0.0
- ZEAMX herbicidal rating (ZEAMX Corn, Field [5]; rate 0.032 kg/ha): 0.0
- ZEAMX herbicidal rating (ZEAMX Corn, Field [5]; rate 0.062 kg/ha): 0.0
- ZEAMX herbicidal rating (ZEAMX Corn, Field [5]; rate 0.125 kg/ha): 0.0
- ORYSAT herbicidal rating (ORYSAT Rice, Tebonnet [6]; rate 0.016 kg/ha): 0.0
- ORYSAT herbicidal rating (ORYSAT Rice, Tebonnet [6]; rate 0.032 kg/ha): 0.0
- ORYSAT herbicidal rating (ORYSAT Rice, Tebonnet [6]; rate 0.062 kg/ha): 0.0
- ORYSAT herbicidal rating (ORYSAT Rice, Tebonnet [6]; rate 0.125 kg/ha): 0.0
- ABUTH herbicidal rating (ABUTH Velvetleaf [7]; rate 0.016 kg/ha): 0.0
- ABUTH herbicidal rating (ABUTH Velvetleaf [7]; rate 0.032 kg/ha): 0.0
- ABUTH herbicidal rating (ABUTH Velvetleaf [7]; rate 0.062 kg/ha): 0.0
- ABUTH herbicidal rating (ABUTH Velvetleaf [7]; rate 0.125 kg/ha): 9.0
- IPOHE herbicidal rating ([8]; rate 0.016 kg/ha): 0.0
- IPOHE herbicidal rating ([8]; rate 0.032 kg/ha): 0.0
- IPOHE herbicidal rating ([8]; rate 0.062 kg/ha): 0.0
- IPOHE herbicidal rating ([8]; rate 0.125 kg/ha): 0.0
- Postemergence herbicidal rating AMBEL (AMBEL Ragweed, Common [9]; 0.008 kg/ha): 0.0
- Postemergence herbicidal rating AMBEL (AMBEL Ragweed, Common [9]; 0.016 kg/ha): 0.0
- Postemergence herbicidal rating AMBEL (AMBEL Ragweed, Common [9]; 0.032 kg/ha): 0.0
- Postemergence herbicidal rating AMBEL (AMBEL Ragweed, Common [9]; 0.062 kg/ha): 0.0
- Postemergence herbicidal rating TRZAWR ([10]; 0.008 kg/ha): 0.5
- Postemergence herbicidal rating TRZAWR ([10]; 0.016 kg/ha): 1.0
- Postemergence herbicidal rating TRZAWR ([10]; 0.032 kg/ha): 2.0
- Postemergence herbicidal rating TRZAWR ([10]; 0.062 kg/ha): 2.5
- Postemergence herbicidal rating CASOB (CASOB Sicklepod [11]; 0.008 kg/ha): 0.0
- Postemergence herbicidal rating CASOB (CASOB Sicklepod [11]; 0.016 kg/ha): 0.0
- Postemergence herbicidal rating CASOB (CASOB Sicklepod [11]; 0.032 kg/ha): 0.0
- Postemergence herbicidal rating CASOB (CASOB Sicklepod [11]; 0.062 kg/ha): 0.0
- Postemergence herbicidal rating ZEAMX (ZEAMX Corn, Field [12]; 0.008 kg/ha): 3.0
- Postemergence herbicidal rating ZEAMX (ZEAMX Corn, Field [12]; 0.016 kg/ha): 3.0
- Postemergence herbicidal rating ZEAMX (ZEAMX Corn, Field [12]; 0.032 kg/ha): 3.5
- Postemergence herbicidal rating ZEAMX (ZEAMX Corn, Field [12]; 0.062 kg/ha): 4.0
- AMBEL herbicidal rating (AMBEL Ragweed, Common [13]; rate 0.016 kg/ha): 0.0
- AMBEL herbicidal rating (AMBEL Ragweed, Common [13]; rate 0.032 kg/ha): 0.0
- AMBEL herbicidal rating (AMBEL Ragweed, Common [13]; rate 0.062 kg/ha): 0.0
- AMBEL herbicidal rating (AMBEL Ragweed, Common [13]; rate 0.125 kg/ha): 0.0
- Postemergence herbicidal rating ORYSAT (ORYSAT Rice, Tebonnet [14]; 0.008 kg/ha): 0.0
- Postemergence herbicidal rating ORYSAT (ORYSAT Rice, Tebonnet [14]; 0.016 kg/ha): 0.0
- Postemergence herbicidal rating ORYSAT (ORYSAT Rice, Tebonnet [14]; 0.032 kg/ha): 0.5
- Postemergence herbicidal rating ORYSAT (ORYSAT Rice, Tebonnet [14]; 0.062 kg/ha): 2.0
- SETVI herbicidal rating (SETVI Foxtail, Green [15]; rate 0.016 kg/ha): 0.0
- SETVI herbicidal rating (SETVI Foxtail, Green [15]; rate 0.032 kg/ha): 0.0
- SETVI herbicidal rating (SETVI Foxtail, Green [15]; rate 0.062 kg/ha): 0.0
- SETVI herbicidal rating (SETVI Foxtail, Green [15]; rate 0.125 kg/ha): 0.0
- Postemergence herbicidal rating CHEAL ([16]; 0.008 kg/ha): 0.0
- Postemergence herbicidal rating CHEAL ([16]; 0.016 kg/ha): 0.0
- Postemergence herbicidal rating CHEAL ([16]; 0.032 kg/ha): 0.0
- Postemergence herbicidal rating CHEAL ([16]; 0.062 kg/ha): 2.0
- TRZAWR herbicidal rating ([17]; rate 0.016 kg/ha): 0.0
- TRZAWR herbicidal rating ([17]; rate 0.032 kg/ha): 0.0
- TRZAWR herbicidal rating ([17]; rate 0.062 kg/ha): 0.0
- TRZAWR herbicidal rating ([17]; rate 0.125 kg/ha): 0.0
- Postemergence herbicidal rating SETVI (SETVI Foxtail, Green [18]; 0.008 kg/ha): 0.0
- Postemergence herbicidal rating SETVI (SETVI Foxtail, Green [18]; 0.016 kg/ha): 0.0
- Postemergence herbicidal rating SETVI (SETVI Foxtail, Green [18]; 0.032 kg/ha): 0.0
- Postemergence herbicidal rating SETVI (SETVI Foxtail, Green [18]; 0.062 kg/ha): 0.0
- CASOB herbicidal rating (CASOB Sicklepod [19]; rate 0.016 kg/ha): 0.0
- CASOB herbicidal rating (CASOB Sicklepod [19]; rate 0.032 kg/ha): 0.0
- CASOB herbicidal rating (CASOB Sicklepod [19]; rate 0.062 kg/ha): 0.0
- CASOB herbicidal rating (CASOB Sicklepod [19]; rate 0.125 kg/ha): 0.0
- Postemergence herbicidal rating GALAP (GALAP Galium [20]; 0.008 kg/ha): 0.0
- Postemergence herbicidal rating GALAP (GALAP Galium [20]; 0.016 kg/ha): 0.0
- Postemergence herbicidal rating GALAP (GALAP Galium [20]; 0.032 kg/ha): 0.0
- Postemergence herbicidal rating GALAP (GALAP Galium [20]; 0.062 kg/ha): 0.0
- Postemergence herbicidal rating ABUTH (ABUTH Velvetleaf [21]; 0.008 kg/ha): 0.0
- Postemergence herbicidal rating ABUTH (ABUTH Velvetleaf [21]; 0.016 kg/ha): 3.0
- Postemergence herbicidal rating ABUTH (ABUTH Velvetleaf [21]; 0.032 kg/ha): 3.0
- Postemergence herbicidal rating ABUTH (ABUTH Velvetleaf [21]; 0.062 kg/ha): 5.0
- GLXMAW herbicidal rating (GLXMAW Soybean, Williams [22]; rate 0.016 kg/ha): 0.0
- GLXMAW herbicidal rating (GLXMAW Soybean, Williams [22]; rate 0.032 kg/ha): 0.0
- GLXMAW herbicidal rating (GLXMAW Soybean, Williams [22]; rate 0.062 kg/ha): 0.0
- GLXMAW herbicidal rating (GLXMAW Soybean, Williams [22]; rate 0.125 kg/ha): 0.0
- Postemergence herbicidal rating GLXMAW (GLXMAW Soybean, Williams [23]; 0.008 kg/ha): 1.5
- Postemergence herbicidal rating GLXMAW (GLXMAW Soybean, Williams [23]; 0.016 kg/ha): 3.5
- Postemergence herbicidal rating GLXMAW (GLXMAW Soybean, Williams [23]; 0.032 kg/ha): 4.0
- Postemergence herbicidal rating GLXMAW (GLXMAW Soybean, Williams [23]; 0.062 kg/ha): 5.0
- CHEAL herbicidal rating ([24]; rate 0.016 kg/ha): 9.0
- CHEAL herbicidal rating ([24]; rate 0.032 kg/ha): 9.0
- CHEAL herbicidal rating ([24]; rate 0.062 kg/ha): 9.0
- CHEAL herbicidal rating ([24]; rate 0.125 kg/ha): 9.0
